Where “and” joins values, the source holds several entries; their conditions need not be identical. Equal entries are not always repeated.
What was measured:
Peregrin (Homo sapiens) = molecular target: T1, Peregrin (Homo sapiens) (UniProt P55201); conditions: Compound concentration 20.0 uM, Protein concentration 2.0 uM, Result type QC Liability
T1 sequence (whole entry): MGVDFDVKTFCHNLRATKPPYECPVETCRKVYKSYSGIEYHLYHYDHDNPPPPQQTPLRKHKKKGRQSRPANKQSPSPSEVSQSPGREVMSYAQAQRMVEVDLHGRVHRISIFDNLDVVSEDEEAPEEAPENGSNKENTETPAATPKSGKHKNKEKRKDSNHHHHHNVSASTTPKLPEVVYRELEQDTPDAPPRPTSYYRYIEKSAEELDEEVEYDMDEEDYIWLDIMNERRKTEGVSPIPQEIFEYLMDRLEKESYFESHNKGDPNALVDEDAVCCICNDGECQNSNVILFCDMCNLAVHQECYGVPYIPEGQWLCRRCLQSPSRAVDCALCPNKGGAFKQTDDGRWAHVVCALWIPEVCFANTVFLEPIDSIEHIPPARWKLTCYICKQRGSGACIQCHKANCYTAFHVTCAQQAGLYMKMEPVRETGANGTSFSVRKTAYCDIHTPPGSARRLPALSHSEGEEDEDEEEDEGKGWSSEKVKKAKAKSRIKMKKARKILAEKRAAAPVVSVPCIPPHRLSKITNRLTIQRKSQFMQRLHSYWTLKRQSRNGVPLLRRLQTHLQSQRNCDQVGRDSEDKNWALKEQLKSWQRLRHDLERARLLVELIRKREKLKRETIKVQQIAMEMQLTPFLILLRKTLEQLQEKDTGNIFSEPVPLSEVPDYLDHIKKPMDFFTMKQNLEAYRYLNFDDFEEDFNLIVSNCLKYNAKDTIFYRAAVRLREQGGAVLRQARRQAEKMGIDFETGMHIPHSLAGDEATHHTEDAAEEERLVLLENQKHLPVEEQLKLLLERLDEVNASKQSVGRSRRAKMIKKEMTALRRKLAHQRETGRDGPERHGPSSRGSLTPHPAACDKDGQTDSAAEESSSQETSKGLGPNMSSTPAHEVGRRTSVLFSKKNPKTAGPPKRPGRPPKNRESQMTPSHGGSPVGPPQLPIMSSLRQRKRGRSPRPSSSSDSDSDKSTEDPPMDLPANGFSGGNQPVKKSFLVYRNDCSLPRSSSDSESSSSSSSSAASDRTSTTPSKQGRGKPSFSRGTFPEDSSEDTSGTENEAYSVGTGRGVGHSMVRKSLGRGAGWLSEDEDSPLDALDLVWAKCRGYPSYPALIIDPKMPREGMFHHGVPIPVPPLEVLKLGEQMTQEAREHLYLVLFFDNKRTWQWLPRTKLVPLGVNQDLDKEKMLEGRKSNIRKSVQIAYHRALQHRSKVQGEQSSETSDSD

[1] = molecular target: Fibroblast growth factor receptor 3 (Homo sapiens) (UniProt P22607); conditions: Compound concentration 20.0 uM, Protein concentration 2.0 uM, Result type QC Liability
Fibroblast growth factor receptor 3 (Homo sapiens), sequence (P22607 23-806 limits assumed): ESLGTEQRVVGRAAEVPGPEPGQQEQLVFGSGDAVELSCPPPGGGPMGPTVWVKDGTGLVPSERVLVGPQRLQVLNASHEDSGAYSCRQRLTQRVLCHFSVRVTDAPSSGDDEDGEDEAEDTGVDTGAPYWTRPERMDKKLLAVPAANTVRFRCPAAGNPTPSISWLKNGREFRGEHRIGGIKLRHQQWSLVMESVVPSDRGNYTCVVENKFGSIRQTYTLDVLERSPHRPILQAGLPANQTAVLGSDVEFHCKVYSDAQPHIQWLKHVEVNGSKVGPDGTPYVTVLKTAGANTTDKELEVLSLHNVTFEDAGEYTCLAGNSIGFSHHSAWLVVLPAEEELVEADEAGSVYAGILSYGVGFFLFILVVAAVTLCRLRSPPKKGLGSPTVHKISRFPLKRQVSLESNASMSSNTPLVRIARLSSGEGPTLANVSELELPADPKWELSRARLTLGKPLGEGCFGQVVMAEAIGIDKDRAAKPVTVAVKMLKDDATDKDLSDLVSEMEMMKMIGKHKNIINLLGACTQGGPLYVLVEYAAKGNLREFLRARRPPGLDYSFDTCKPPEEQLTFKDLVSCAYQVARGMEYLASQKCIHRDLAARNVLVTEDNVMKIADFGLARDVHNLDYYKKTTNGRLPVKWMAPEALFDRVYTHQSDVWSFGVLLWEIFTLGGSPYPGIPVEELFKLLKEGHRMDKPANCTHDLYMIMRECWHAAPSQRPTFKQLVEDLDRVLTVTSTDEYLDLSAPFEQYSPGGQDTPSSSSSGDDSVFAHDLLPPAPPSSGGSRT
Description: Thermal Shift Assay. Domain: start/stop: P449-E759

| SMILES | ΔTm (Peregrin (Homo sapiens)) | ΔTm [1] |
| --- | --- | --- |
| CNc1oc(-c2cccc3ccccc23)nc1C#N | -2.17 °C | 0.61 °C |
| CNc1nc(-c2cc(C(=O)N3CCN(Cc4ccc(Cl)cc4)CC3)c(Cl)cn2)cs1 | -1.62 °C | 0.37 °C |
| O=C(O)C[C@H]1CC[C@H](c2ccc(NC(=O)c3nnc(Nc4ccc(F)c(F)c4)o3)cc2)CC1 | -2.89 °C | 0.79 °C |
| CS(=O)(=O)NCC[C@H](NC(=O)c1cncc2c1cnn2-c1ccc(F)cc1)c1ccnc(S(C)(=O)=O)c1 | -1.91 °C | 0.62 °C |
| O[C@]1(C(F)(F)F)CCCC[C@H]1Nc1ccc(F)cc1 | 0.24 °C | 0.58 °C |
| COCc1c(-c2cc3cc(C)cc(OC)c3s2)c2c(N)ncnn2c1CN[C@@H]1CCNC1=O | -2.51 °C | 6.99 °C |
| Cn1cc(-c2ccc(-c3cncc(Cl)c3N3CCC4(CCNC4=O)CC3)cc2)cn1 | -1.65 °C | 0.5 °C |
| CCCS(=O)(=O)Nc1ccc(F)c(Nc2ncnc3cnc(-n4cnc(C)c4)nc23)c1F | 0.01 °C | 1.06 °C |
| CC(C=CC1=C(C)CCCC1(C)C)=CC=CC(C)=CC(=O)O | -2.28 °C | 0.68 °C |
| Clc1ccccc1C(c1ccccc1)(c1ccccc1)n1cccn1 | -3.65 °C | 0.25 °C |
| COc1cc2c(NC3CCN(C(C)C)CC3)nc(C3CCCCC3)nc2cc1OCCCN1CCCC1 | -0.55 °C | 0.95 °C |
| Cc1nc2cccnc2n2c(-c3cc(C(C)(C)O)ncc3Cl)nnc12 | -3.02 °C | 1.25 °C |
| NS(=O)(=O)c1ccc(Nc2nc(OCC3CCCCC3)c3nc[nH]c3n2)cc1 | 1.2 °C | 0.37 °C |
| CC(C)C[C@H](NC(=O)[C@@H](O)[C@H](N)Cc1ccccc1)C(=O)O | -2.93 °C | 0.78 °C |
| CC1(C)CCC(CN2CCN(c3ccc(C(=O)NS(=O)(=O)c4ccc(NCC5CCOCC5)c([N+](=O)[O-])c4)c(Oc4cnc5[nH]ccc5c4)c3)CC2)=C(c2ccc(Cl)cc2)C1 | -1.4 °C | 1.11 °C |
| O=C(O)CCn1c2c(c3ccccc31)C[C@H](NS(=O)(=O)c1ccc(F)cc1)CC2 | -1.45 °C | 0.49 °C |
| CC(C)(C)c1cnc(CSc2cnc(NC(=O)C3CCNCC3)s2)o1 | -1.47 °C | 0.5 °C |
| O=C(O)CCC/C=C\C[C@@H]1[C@@H](/C=C/[C@@H](O)COc2cccc(C(F)(F)F)c2)[C@H](O)C[C@@H]1O | -2.28 °C | 0.51 °C |
| Fc1ccc(-c2nc(-c3c(F)cccc3F)[nH]c2-c2ccncc2)cc1 | 0.63 °C | 2.21 °C |
| Cc1cn([C@@H](C)CC#N)c(=O)c2cc(Cn3nc(C(F)F)cc3Cl)nn12 | -1.08 °C | 0.93 °C |
| Cc1nc(Nc2cnn(C3CCNCC3)c2)nc2c1N(C)C(=O)c1cc3ccccc3cc1N2C | -2.69 °C | 1.22 °C |

| SMILES | ΔTm (Peregrin (Homo sapiens)) | ΔTm [1] |
| --- | --- | --- |
| CCC(C(=O)Nc1ccc(-c2cc3ccccc3s2)c(C(N)=O)c1)c1nccs1 (stereo unspecified) | -1.09 °C | 0.48 °C |
| CCO[C@@H](Cc1ccc(OCCc2ccc(OS(C)(=O)=O)cc2)cc1)C(=O)O | -1.83 °C | 0.52 °C |
| COc1nc2ccc([C@@](O)(c3ccccc3)C3CCN(C(C)=O)CC3)cc2c(Cl)c1Cc1ccc(-n2cccn2)cc1 | -1.27 °C | 5.87 °C |
| CN(C)[C@H]1CCc2nc(NC(=O)c3cccc(Cn4cc(-c5ccc(C#N)cc5)cn4)c3)sc2C1 | 0.07 °C | 0.81 °C |
| O=C(O)[C@]1(Cc2cccc(Nc3nccs3)n2)CC[C@@H](Oc2cccc(Cl)c2F)CC1 | -3.28 °C | 6.09 °C |
| O=C1Nc2ccc(C(=O)c3ccco3)cc2C1=Cc1cc(Cl)c(O)c(Cl)c1 | 0.59 °C | 2.35 °C |
| Cc1cc(-c2cc3ncccc3c(OC[C@H]3CCCNC3)n2)ccc1N(C)C | -1.71 °C | 3.21 °C |
| CC(C(=O)Nc1cc(C#N)ccc1CCCC(=O)O)c1ccc(F)c2ccccc12 (stereo unspecified) | -2.92 °C | 0.51 °C |
| O=C(NCCN1CCC2(CC1)C(=O)NCN2c1cccc(F)c1)c1ccc2ccccc2c1 | -3.2 °C | 0.36 °C |
| CC(C)(O)[C@H](F)CN1Cc2cc(NC(=O)c3cnn4cccnc34)c(N3CCOCC3)cc2C1=O | -1.78 °C | 2.76 °C |
| COc1ccc(CSc2nnc(-c3ccc4ncsc4c3)o2)cc1C(F)(F)F | -1.83 °C | -7.8 °C |
| Cc1nc2cccnc2n2c(-c3cc([C@@]4(O)CCCOC4)ccc3Cl)nnc12 | -2.38 °C | 0.59 °C |
| CC1CCN(c2ccnc(NCc3cn(C)cn3)n2)CC1 | -2.32 °C | 0.69 °C |
| COc1nc2ccc([C@@](O)(c3ccc(Cl)cc3)c3cncn3C)cc2c(Cl)c1Cc1ccc(-n2cccn2)cc1 | -1.33 °C | -1.77 °C |
| CNC(=O)c1cc(C(=O)N[C@H]2[C@@H]3COC[C@@H]32)cc2c1O[C@@H](CF)[C@@H]2c1ccccc1 | -1.16 °C | 0.48 °C |
| CS(=O)(=O)c1ccc(-c2cnc(N)c(C(=O)Nc3ccccc3)n2)cc1 | -1.36 °C | 1.51 °C |
| N#Cc1ccc(C#CC[C@@H](C#N)NC(=O)[C@@H]2CCCCN2)cc1F | -2.06 °C | 0.43 °C |
| Nc1c(CC(=O)O)cccc1C(=O)c1ccc(Br)cc1 | -2.36 °C | 0.57 °C |
| Cc1cccc(-c2[nH]c(CNc3ccccc3F)nc2-c2ccc3ncnn3c2)n1 | 0.68 °C | 4.08 °C |
| CCS(=O)(=O)Nc1cccc(Oc2cc(F)cc(Nc3ccc(I)cc3F)c2NS(=O)(=O)C2CC2)c1 | -1.34 °C | -1.54 °C |
| CN[C@@H](C)C(=O)N[C@H]1CN(C(=O)CC(C)C)CC[C@H]2CC[C@@H](C(=O)NC(c3ccccc3)c3ccccc3)N2C1=O | -1.53 °C | 0.83 °C |

| SMILES | ΔTm (Peregrin (Homo sapiens)) | ΔTm [1] |
| --- | --- | --- |
| CCOC(=O)N1CCC(CN(Cc2ccc(Cl)cc2)Cc2ccc([N+](=O)[O-])s2)C1 (stereo unspecified) | -2.07 °C | 0.35 °C |
| N=C(N)NCCC[C@H](NC(=O)C(c1ccccc1)c1ccccc1)C(=O)NCc1ccc(CNC(N)=O)cc1 | -1.9 °C | 0.81 °C |
| N#CN1CC[C@H](C(=O)Nc2nc3c(s2)CN(C(=O)CN=[N+]=[N-])CC3)C1 | -1.51 °C | 1.09 °C |
| C[C@]12CC[C@@H]3c4ccc(C(N)=O)cc4CC[C@H]3[C@@H]1CC=C2c1cncc(F)c1 | -4.27 °C | 0.92 °C |
| Clc1ccc(-c2nc3sccn3c2/C=N/OCc2ccc(Cl)c(Cl)c2)cc1 | -0.92 °C | 0.55 °C |
| CC(C)(c1ccc(OCc2cccc(COc3ccc(C(=N)N)cc3)c2)cc1)c1ccc(O[C@@H]2O[C@H](C(=O)O)[C@@H](O)[C@H](O)[C@H]2O)cc1 | -6.79 °C | -5.02 °C |
| COc1cc(N2CCN(C)CC2)ccc1Nc1ncc2c(n1)N(C)c1ccccc1C(=O)N2CC(F)(F)F | -2.22 °C | 0.22 °C |
| CCC(C)(C)CC[C@H](NC(=O)N1CCOCC1)C(=O)NC1(C#N)CCN(C)CC1 | -3.19 °C | 0.71 °C |
| COc1cc2nc(C)nc(NC3(c4ccccc4)CC3)c2cc1OC | -3.11 °C | 0.4 °C |
| C[S+](C)[O-] | 0 °C (2×) and -0.4 °C | 0 °C (2×) and 0.62 °C |
| CCCCCCCC/C=C\CCCCCCCC(=O)NCCO | -0.91 °C | 1.23 °C |
| O=C1COc2cc(C(=O)N(Cc3ccc(C(=O)Nc4ccncn4)cc3)C3CC3)ccc2N1 | -0.77 °C | 0.74 °C |
| COc1ccccc1-c1cc(Nc2cccc(CS(N)(=O)=O)c2)ncn1 | -0.77 °C | 0.74 °C |
| CC(=O)Nc1cccc(-n2c(=O)n(C3CC3)c(=O)c3c(Nc4ccc(I)cc4F)n(C)c(=O)c(C)c32)c1 | -0.16 °C | 0.38 °C |
| COc1ncc(-c2cc(-c3ncc(CN4C[C@@H](C)O[C@@H](C)C4)o3)c3cn[nH]c3c2)cc1NS(C)(=O)=O | -0.2 °C | 1.45 °C |
| Cc1nc2ccc(Cl)cc2c(-c2ccccc2)c1CC(=O)O | -3.32 °C | 0.68 °C |
| COc1ccc(N(C(=O)Nc2c(C)cccc2C)c2cc(Nc3ccc(N4CCN(C)CC4)cc3)ncn2)c(OC)c1 | -3.64 °C | 8.93 °C |
| CN[C@@H]1CC[C@@H](c2ccc(Cl)c(Cl)c2)c2ccccc21 | -1.62 °C | 0.61 °C |
| Cc1nnc2n1-c1sc(CCC(=O)N3CCOCC3)cc1C(c1ccccc1Cl)=NC2 | -2.21 °C | 1.44 °C |
| CCc1nc(-c2cccc(C)c2)c(-c2ccncc2)s1 | -0.75 °C | 0.65 °C |
| Cc1cccc(-c2nn3c(c2-c2ccnc4ccc(C(N)=O)cc24)CCC3)n1 | -0.93 °C | 1.13 °C |

Source: ChEMBL document CHEMBL5308504, “Tm Shift (DSF) assay results for EUbOPEN Chemogenomics Library” (2023)
